From patent US12398127B2, “Thyroid hormone receptor beta agonist compounds” (Terns Pharmaceuticals, Inc., priority 2019, dated 2025)

Key:
[1] = target: T1, TR beta-LBD (Homo sapiens, UniProt P10828); assay: LanthaScreen TR-FRET Thyroid Receptor beta Coactivator Assay; format: biochemical; conditions: for THRβ-Selectivity: THR beta over THR alpha, derived from T3-selectivity normalized data; for EC50: TR-FRET coactivator recruitment, 2 hour incubation at room temperature, run in duplicate multiple times, average data reported, read-out: EC50 THRβ-FRET
T1 construct: TR alpha-LBD (0.4 nM final concentration) or TR beta-LBD (1.0 nM final concentration) was added; purchased ThermoFisher
T1 sequence (P10828 217-461 limits assumed): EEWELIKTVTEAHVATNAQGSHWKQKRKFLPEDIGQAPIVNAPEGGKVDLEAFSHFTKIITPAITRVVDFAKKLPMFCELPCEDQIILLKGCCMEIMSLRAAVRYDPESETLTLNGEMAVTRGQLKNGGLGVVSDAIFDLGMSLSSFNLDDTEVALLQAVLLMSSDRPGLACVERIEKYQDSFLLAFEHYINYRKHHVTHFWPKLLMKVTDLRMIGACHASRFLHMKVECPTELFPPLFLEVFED
Protocol: (§1) LanthaScreen™ TR-FRET Thyroid Receptor alpha Coactivator Assay kit (ThermoFisher) and LanthaScreen™ TR-FRET Thyroid Receptor beta Coactivator Assay kit (ThermoFisher) were used for agonist compound screening. Compounds in DMSO were diluted using ECHO Liquid Handler (Labcyte Inc.) into 384 plates in 10-point 3-fold series in duplicate (5 micro M final top concentration). Buffer C (ThermoFisher) was added to each well before the 4×mixture of fluorescein-SCR2-2 coactivator (200 nM final concentration), Terbium-labeled anti-GST antibody (2 nM final concentration), and TR alpha-LBD (0.4 nM final concentration) or TR beta-LBD (1.0 nM final concentration) was added. After 2 hour incubation at room temperature in dark, the TR-FRET signal was measured on an EnVision plate reader (PerkinElmer) with excitation at 340 nm and dual emission readout at 495 and 520 nm with the delay time of 100 micro second and the integration time of 200 micro second. The ratio of emission signal at 520 and at 495 was used to calculate EC50 using GraphPad Prism (GraphPad Software). In every batch of compound screening, T3 (L-3,3′,5-Triiodothyronine sodium salt, >95%) (Calbiochem) was used as reference compound. The EC50 of T3 measured were within 3-fold of the reference value provided by the assay kit manufacturer (ThermoFisher Scientific). The Z′ factors measured in every batch of screening using T3 as high percent effect (HPE) control and 0.5% DMSO as zero percent effect (ZPE) control were in the range of 0.5 to 0.8. Compounds' THR-beta selectivity values are derived from T3-selectivity normalized data.

[2] = target: T2, TR alpha-LBD (Homo sapiens, UniProt P10827); assay: LanthaScreen TR-FRET Thyroid Receptor alpha Coactivator Assay; format: biochemical; conditions: TR-FRET coactivator recruitment, 2 hour incubation at room temperature; run in duplicate multiple times, average data reported; read-out: EC50 THRα-FRET
T2 construct: TR alpha-LBD (0.4 nM final concentration) or TR beta-LBD (1.0 nM final concentration) was added; purchased ThermoFisher
T2 sequence (P10827 163-410 isoform P10827-2 limits assumed, other chains not shown): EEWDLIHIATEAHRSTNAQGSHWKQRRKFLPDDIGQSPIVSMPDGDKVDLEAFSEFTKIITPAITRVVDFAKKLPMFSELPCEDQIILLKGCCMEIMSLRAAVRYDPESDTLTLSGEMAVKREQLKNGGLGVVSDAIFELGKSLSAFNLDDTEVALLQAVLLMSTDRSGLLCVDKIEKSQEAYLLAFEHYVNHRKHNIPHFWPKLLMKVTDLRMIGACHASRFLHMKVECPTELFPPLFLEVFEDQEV
Protocol: as §1, with “The EC50 of T3 measured were within 3-fold of the reference value provided by the assay kit manufacturer (ThermoFisher Scientific).” left out, “Compounds' THR-beta selectivity values are derived from T3-selectivity normalized data.” left out

SMILES | THRβ-Selectivity [1] | EC50 [1] | EC50 [2]
O=C(Nc1cc(Cl)c(Oc2n[nH]c(=O)c3ccccc23)c(Cl)c1)c1noc(=O)[nH]1 [Example 1, N-(3,5-dichloro-4-((4-oxo-3,4-dihydrophthalazin-1-yl)oxy)phenyl)-5-oxo-4,5-dihydro-1,2,4-oxadiazole-3-carboxamide] | 57.5 | 0.0337 µM | 0.492 µM
Cn1nc(Oc2c(Cl)cc(NC(=O)c3noc(=O)[nH]3)cc2Cl)c2ccccc2c1=O [Example 2, N-(3,5-dichloro-4-((3-methyl-4-oxo-3,4-dihydrophthalazin-1-yl)oxy)phenyl)-5-oxo-4,5-dihydro-1,2,4-oxadiazole-3-carboxamide] | 10.9 | 0.0055 µM | 0.0405 µM
